Broadly, the fraction unbound is free concentration divided by total concentration. A low value points to little free substance. As a reminder, the bioavailability is dose-corrected exposure relative to a reference, in per cent. By Vd is commonly meant the apparent volume that relates the amount in the body to the concentration in plasma or blood. A low value points to confinement near the circulation. What is called Tmax is the time at which the peak concentration occurs. Usually Cmax stands for the highest concentration seen after dosing.

Structures are written as SMILES. Like-named read-outs stand apart in the source and are kept apart here.

Here are results for three molecules from patent US20020197286A1, “Method for preventing and treating skin aging” (priority 2001, published 2002).

A short description of series [1]: Population pharmacokinetic analysis of NA/EE tablets. As to conditions: for average steady-state concentrations (Css): femhrt ⅕ (1 mg NA/5 mcg EE), estimated from population pharmacokinetic analysis. Here is the method:
However, the multiple-dose pharmacokinetics were studied at a dose of 1 mg NA/10 mcg EE in 18 postmenopausal women.

A further series in a line: Plasma protein binding. As to conditions: human. The class given is in vitro ADME. From the text:
(§1) Volume of distribution of norethindrone and EE ranges from 2 to 4 L/kg. Plasma protein binding of both steroids is extensive (>95%); norethindrone binds to both albumin and SHBG, whereas EE binds only to albumin.

Series [2] is described as follows: Absorption and bioavailability after oral administration of femhrt ⅕ / NA/EE tablets. The class given is in vivo. As to conditions: for bioavailability: human, after oral dosing, first-pass metabolism, read-out: absolute bioavailability. The procedure: The term “effective dose” means the amount of a progestin and an estrogen required to delay the onset or treat symptoms manifested by skin aging or acne in a particular patient. […] Norethindrone acetate and EE are rapidly absorbed from femhrt ⅕ tablets, with maximum plasma concentrations of norethindrone and EE generally occurring 1 to 2 hours postdose. […] For example, a method for preventing and treating acne in a patient in need of treatment comprising administering an effective amount of Estrostep which contains 1 mg NA and a gradually increasing dose of ethinyl estradiol; 20 mcg×5 days, 30 mcg×7 days, and 35 mcg×9 days in a pharmaceutically acceptable carrier. Other dosage forms may be administered.
Norethindrone acetate and EE are rapidly absorbed from femhrt ⅕ tablets, with maximum plasma concentrations of norethindrone and EE generally occurring 1 to 2 hours postdose. […] The extent of norethindrone absorption is increased by 27% following administration of NA/EE tablets with food.

Series [3] can be described thus: Distribution: volume of distribution. As to conditions: human, in vivo.
Source text: as §1

Series [4] is described as follows: Multiple-dose pharmacokinetics of 1 mg NA/10 mcg EE tablets in 18 postmenopausal women. The class given is in vivo, human. As to conditions: for Tmax / Cmax / AUC(0-t) / half-life: female, human; for AUC(0-t): read-out: AUC(0-24); for half-life: read-out: t½ (converted).
Where [5] appears, read: plasma, oral, Single-Dose (Day 1), 1 mg NA/10 mcg EE tablets, Mean (SD).
Setting [6] is: plasma, oral, Steady-State (Day 87), 1 mg NA/10 mcg EE tablets, Mean (SD).

Turning to `C#C[C@]1(O)CC[C@H]2C3CCc4cc(O)ccc4[C@H]3CCC21C` (stereo partly drawn) [Ethinyl Estradiol], the “average steady-state concentrations (Css)” value in series [1] was 0.0114 ng/mL. In series [1] (in vivo), the “dose proportionality of mean steady-state plasma concentrations” value is given as “proportional to dose”, the “dose proportionality of steady-state concentrations” value was “less than proportional increase” and the “effect of age on pharmacokinetics” value is given as “not affected by age”. For the same molecule, the fraction unbound in “Plasma protein binding” is below 0.05. Besides, in series [2] (in vivo), the bioavailability is around 55% and the “effect of high fat meal on absorption” value was “decreases rate but not extent”. The Vd in series [3] is 2 to 4 L/kg. In addition, in series [4] (in vivo, Tmax), the Tmax worked out at 2.2 h.

Regarding `C#C[C@]1(OC(C)=O)CC[C@H]2C3CCC4=CC(=O)CCC4[C@H]3CCC21C` (stereo partly drawn) [NA, (17-alpha)-17-(acetyloxy)-19-norpregna-4-en-20-yn-3-one], the “effect of age on pharmacokinetics” value in series [1] (in vivo) is listed as “not affected by age”. Besides, the deacetylation to norethindrone entry in series [2] (in vivo, po) was “completely and rapidly deacetylated”.

Consider `C#C[C@]1(O)CC[C@H]2[C@@H]3CCC4=CC(=O)CC[C@@H]4[C@H]3CC[C@@]21C` [Norethindrone, norethindrone], for which the “dose proportionality of mean steady-state concentrations” value in series [1] (1 mg NA/5 mcg EE and 1/10 compared to 0.5 mg NA/2.5 mcg EE tablets) is given as “slightly more than proportional to dose”. In series [1], the “average steady-state concentrations (Css)” value is reported as 2.6 ng/mL. Besides, the fraction unbound in the series “Plasma protein binding” is below 0.05. The “increase of extent of absorption with food” value in series [2] (NA/EE tablets with food) stood at 27%. The bioavailability in series [2] (in vivo) was around 64%. In series [3], this molecule gave a distribution volume (Vd) of 2 to 4 L/kg. The CL/F in series [4] (Single-Dose (Day 1), 1 mg NA/10 mcg EE tablets, Mean (SD)) is listed as 588 (416) mL/min; in series [4] (Steady-State (Day 87), 1 mg NA/10 mcg EE tablets, Mean (SD)), 226 (139) mL/min. Further, the Cmax was determined as 6 ng/mL in series [4] (setting [5]) and 10.7 ng/mL in series [4] (setting [6]). In addition, the AUC(0-t) in series [4] (setting [5]) turned out to be 29.7 ng·h/mL; in series [4] (setting [6]), 81.8 ng·h/mL. Moreover, the time to peak (Tmax) was 1.8 h in series [4] (plasma, oral, Single-Dose (Day 1), 1 mg NA/10 mcg EE tablets, Mean (SD), read-out: Tmax) and 1.8 h in series [4] (plasma, oral, Steady-State (Day 87), 1 mg NA/10 mcg EE tablets, Mean (SD), read-out: Tmax). Also, the half-life in series [4] (setting [5]) was 10.3 h; in series [4] (setting [6]) it was 13.3 h.
